This is an account of results in ChEMBL document CHEMBL1126992, “The synthesis and biochemical evaluation of new A1 selective adenosine receptor agonists containing 6-hydrazinopurine moieties” (Bioorg Med Chem Lett, 1993).

pIC50, pKi: −log10 of the molar value.

The target in one data set is Adenosine A2 receptor (Rattus norvegicus, UniProt P29276+P30543). The data set can be described thus: Tested for inhibition of adenosine A2 receptor binding to rat brain.
The target of another data set is T1, Adenosine receptor A1 (Rattus norvegicus, UniProt P25099).
T1 sequence (P25099 whole entry): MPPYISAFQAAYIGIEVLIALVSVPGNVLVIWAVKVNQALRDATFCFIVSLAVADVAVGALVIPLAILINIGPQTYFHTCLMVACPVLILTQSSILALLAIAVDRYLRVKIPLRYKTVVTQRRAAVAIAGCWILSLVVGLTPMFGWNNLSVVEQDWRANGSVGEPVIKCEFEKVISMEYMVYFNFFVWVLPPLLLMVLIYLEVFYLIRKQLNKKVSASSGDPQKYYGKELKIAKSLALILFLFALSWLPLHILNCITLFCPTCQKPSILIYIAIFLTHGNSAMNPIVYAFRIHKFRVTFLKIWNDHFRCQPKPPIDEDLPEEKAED
Put plainly: Tested for inhibition of adenosine A1 receptor binding to rat brain.

Data set [1] in a line: Partition coefficient (logP). In kind it is physicochemical. Conditions: octanol/water.
Data set [2] is filed under the species Cavia porcellus. Put plainly: Tested for agonistic potency to inhibit contractile force in isolated guinea pig atria. In kind it is functional.
The species entered for data set [3] is Cavia porcellus. The data set can be described thus: Tested for agonistic potency to inhibit stimulated cAMP accumulation in isolated guinea pig heart. In kind it is functional. Background: cAMP levels reflect the balance of adenylyl cyclase and phosphodiesterase activity.

For `OC[C@H]1O[C@@H](n2cnc3c(NN4CCN(c5ccccc5)CC4)nc(Cl)nc32)[C@H](O)[C@@H]1O`, the Ki (commonly a measure of affinity in units of concentration, obtained from inhibition or displacement) on Adenosine A2 receptor came to 5571 nM. The pKi – broadly, the Ki on a negative log10 scale, so that one unit is a factor of ten – on Adenosine receptor A1 is 7.26. The logP (usually a log measure of how a compound divides between an organic and an aqueous phase) in data set [1] was 1.42.

`OC[C@H]1O[C@@H](n2cnc3c(NN4CCCC(O)C4)nc(Cl)nc32)[C@H](O)[C@@H]1O` (mixture of isomers): the pIC50 – broadly, the negative decadic logarithm of the IC50, by convention in mol/L – in the data set listed under Cavia porcellus [2] was 6.33; in the data set listed under Cavia porcellus [3], 8.34. Moreover, the Ki at Adenosine A2 receptor is on record as 720 nM. The same molecule gave a pKi on Adenosine receptor A1 of 7.96. Further, the logP in data set [1] was -0.82.

`COC[C@H]1CCCN1Nc1nc(Cl)nc2c1ncn2[C@@H]1O[C@H](CO)[C@@H](O)[C@H]1O`: the Ki on Adenosine A2 receptor is 459 nM. Besides, the pKi at Adenosine receptor A1 was 7.96. For the same molecule, the logP in data set [1] stood at 0.32.

With `OC[C@H]1O[C@@H](n2cnc3c(NN4CCCCC4)nc(F)nc32)[C@H](O)[C@@H]1O`, the pIC50 in the data set listed under Cavia porcellus [2] is 5.89; in the data set filed under Cavia porcellus [3], 8.42. In addition, the Ki at Adenosine A2 receptor was 1050 nM. At Adenosine receptor A1, this molecule gave a pKi of 8.44. The molecule further registered a logP in data set [1] of 0.35.

As to `COC[C@@H]1CCCN1Nc1nc(Cl)nc2c1ncn2[C@@H]1O[C@H](CO)[C@@H](O)[C@H]1O`, on Adenosine A2 receptor, the Ki is recorded as 564 nM. This molecule also had a pKi on Adenosine receptor A1 of 8.00. This molecule returned a logP in data set [1] of 0.32.

Consider `OC[C@H]1O[C@@H](n2cnc3c(NC4CCCC4)ncnc32)[C@H](O)[C@@H]1O` [N6-CYCLOPENTYLADENOSINE], for which the pIC50 in the data set filed under Cavia porcellus [2] was 6.38; in the data set listed under Cavia porcellus [3], 9.22. At Adenosine A2 receptor, this molecule had a Ki of 321 nM. The logP in data set [1] worked out at 0.72.

For the molecule `OC[C@H]1O[C@@H](n2cnc3c(NN4CCCC4)nc(I)nc32)[C@H](O)[C@@H]1O`, on Adenosine A2 receptor, the Ki came to 57000 nM. This molecule also showed a pKi at Adenosine receptor A1 of 4.89. The molecule further registered a logP in data set [1] of 1.42.

As for `OC[C@H]1O[C@@H](n2cnc3c(NN4CCCCC4)nc(Cl)nc32)[C@H](O)[C@@H]1O`, the pIC50 in the data set filed under Cavia porcellus [2] was 6.24; in the data set filed under Cavia porcellus [3] it was 8.68. The molecule further showed a Ki at Adenosine A2 receptor of 1485 nM. For the same molecule, the pKi at Adenosine receptor A1 was 8.38. Moreover, the logP in data set [1] came to 0.79.

Consider `OC[C@H]1O[C@@H](n2cnc3c(NN4CCC(c5ccccc5)CC4)nc(Cl)nc32)[C@H](O)[C@@H]1O`, for which the values for the pIC50 in the data set filed under Cavia porcellus [2] and in the data set filed under Cavia porcellus [3] were 6.49 and 8.60, respectively. The molecule further gave a Ki on Adenosine A2 receptor of 1200 nM. At Adenosine receptor A1, the pKi was 7.96. The logP in data set [1] was 2.36.

`OC[C@H]1O[C@@H](n2cnc3c(NN4CCCCCC4)nc(Cl)nc32)[C@H](O)[C@@H]1O` returned a Ki at Adenosine A2 receptor of 1130 nM. On Adenosine receptor A1, this molecule showed a pKi of 8.03. In addition, the lipophilicity (logP) in data set [1] came to 1.42.

Consider `OC[C@H]1O[C@@H](n2cnc3c(NN4CCOCC4)nc(Cl)nc32)[C@H](O)[C@@H]1O`, for which the Ki on Adenosine A2 receptor came out at 1040 nM. On Adenosine receptor A1, the pKi was 7.88. In data set [1], this molecule registered a logP of 0.11.

For the molecule `OC[C@H]1O[C@@H](n2cnc3c(NN4CCC(Oc5ccccc5)CC4)nc(Cl)nc32)[C@H](O)[C@@H]1O`, the values for the pIC50 in the data set listed under Cavia porcellus [2] and in the data set listed under Cavia porcellus [3] were 6.72 and 10.52, respectively. Besides, the Ki at Adenosine A2 receptor amounted to 1100 nM. This molecule also gave a pKi at Adenosine receptor A1 of 8.85. This molecule registered a logP in data set [1] of 2.05.

`CSc1nc(NN2CCCCC2)c2ncn([C@@H]3O[C@H](CO)[C@@H](O)[C@H]3O)c2n1`: on Adenosine A2 receptor, the Ki is 2825 nM. The molecule also gave a pKi at Adenosine receptor A1 of 6.41. The molecule further showed a logP in data set [1] of 0.89.

On Adenosine A2 receptor, `OC[C@H]1O[C@@H](n2cnc3c(NN4CCCC(Sc5ccccc5)C4)nc(Cl)nc32)[C@H](O)[C@@H]1O` (mixture of isomers) registered a Ki of 1380 nM. In addition, the pKi at Adenosine receptor A1 was 7.89. The logP in data set [1] was found to be 2.89.

For the molecule `OC[C@H]1O[C@@H](n2cnc3c(NN4CCCCC4)nc(Br)nc32)[C@H](O)[C@@H]1O`, the Ki at Adenosine A2 receptor is reported as 1520 nM. The pKi on Adenosine receptor A1 was 8.03. Besides, in data set [1], the logP amounted to 0.89.

`OC[C@H]1O[C@@H](n2cnc3c(NC4CCCC4)nc(Cl)nc32)[C@H](O)[C@@H]1O` displayed a logP in data set [1] of 2.07.

Turning to `CCCOc1nc(NN2CCCCC2)c2ncn([C@@H]3O[C@H](CO)[C@@H](O)[C@H]3O)c2n1`, the Ki at Adenosine A2 receptor is on record as 2700 nM. The pKi at Adenosine receptor A1 is 6.40.

Consider `OC[C@H]1O[C@@H](n2cnc3c(NN4CCC(Sc5ccccc5)CC4)nc(Cl)nc32)[C@H](O)[C@@H]1O`, for which the figures for the pIC50 in the data set listed under Cavia porcellus [2] and in the data set filed under Cavia porcellus [3] were 6.19 and 9.52, respectively. Moreover, the Ki at Adenosine A2 receptor turned out to be 470 nM. For the same molecule, on Adenosine receptor A1, the pKi was 9.05. The molecule also had a logP in data set [1] of 2.62.

Take `OC[C@H]1O[C@@H](n2cnc3c(NN4CCCCC4)ncnc32)[C@H](O)[C@@H]1O`: on Adenosine A2 receptor, the Ki is recorded as > 10000 nM. For the same molecule, the pKi on Adenosine receptor A1 was < 5.52. Also, in data set [1], the logP was 1.28.

With `CN1CCN(Nc2nc(Cl)nc3c2ncn3[C@@H]2O[C@H](CO)[C@@H](O)[C@H]2O)CC1`, the Ki at Adenosine A2 receptor is reported as > 30000 nM. On Adenosine receptor A1, this molecule gave a pKi of 6.74. In data set [1], this molecule registered a logP of 0.11.

As for `OC[C@H]1O[C@@H](n2cnc3c(NN4CCCC(Oc5ccccc5)C4)nc(Cl)nc32)[C@H](O)[C@@H]1O` (mixture of isomers), the pIC50 is 5.35 in the data set listed under Cavia porcellus [2] and 8.32 in the data set filed under Cavia porcellus [3]. Further, at Adenosine A2 receptor, the Ki turned out to be 1733 nM. On Adenosine receptor A1, this molecule had a pKi of 7.82. Besides, the logP in data set [1] is 1.88.

With `Nc1nc(NN2CCCCC2)c2ncn([C@@H]3O[C@H](CO)[C@@H](O)[C@H]3O)c2n1`, on Adenosine A2 receptor, the Ki was determined as 3320 nM. This molecule also showed a pKi at Adenosine receptor A1 of 7.52. Further, the logP in data set [1] was -0.55.

`OC[C@H]1O[C@@H](n2cnc3c(NN4CC=C(c5ccccc5)CC4)nc(Cl)nc32)[C@H](O)[C@@H]1O`: the pIC50 in the data set listed under Cavia porcellus [2] was 5.54; in the data set filed under Cavia porcellus [3], 8.96. On Adenosine A2 receptor, this molecule showed a Ki of 638 nM. This molecule had a negative logarithm of the Ki (pKi) at Adenosine receptor A1 of 8.21. In data set [1], this molecule returned a logP of 2.28.

For `OC[C@H]1O[C@@H](n2cnc3c(NN4CCCCC4c4ccccc4)nc(Cl)nc32)[C@H](O)[C@@H]1O` (stereo partly drawn), at Adenosine A2 receptor, the inhibition constant (Ki) turned out to be 17 nM. For the same molecule, the pKi on Adenosine receptor A1 was 7.47. In data set [1], this molecule returned a logP of 2.25.

In the case of `O=S(=O)(c1ccccc1)C1CCN(Nc2nc(Cl)nc3c2ncn3[C@@H]2O[C@H](CO)[C@@H](O)[C@H]2O)CC1`, the pIC50 in the data set filed under Cavia porcellus [2] is 6.49; in the data set listed under Cavia porcellus [3] it was 9.15. In addition, on Adenosine A2 receptor, the Ki was 220 nM. The molecule further showed a pKi on Adenosine receptor A1 of 7.77.

With `CC1CCCC(C)N1Nc1nc(Cl)nc2c1ncn2[C@@H]1O[C@H](CO)[C@@H](O)[C@H]1O` (stereo partly drawn), the inhibitory constant (Ki) at Adenosine A2 receptor was 33 nM. The molecule also gave a pKi at Adenosine receptor A1 of 8.40. In addition, the logP in data set [1] was determined as 1.38.
